Laboratory results published in patent US8288158B2, “Stem cells modified to facilitate threonine catabolism” (Board of Regents, The University of Texas System, priority 2009, dated 2012).

Assays:
HeLa cells = assay: HeLa cell growth with 3-HNV; type: cell-based
Description: (§1) Instead of the normal, 400 uM level of glycine, threonine-deficient medium was supplemented with 4 mM glycine. ES cells subjected to this threonine-deficient, glycine-enriched medium grew no better than those subjected to the threonine drop out medium itself. It is possible that ES cells are unable to deliver the supplemented glycine to mitochondria in order to feed the glycine cleavage system and folate charging. Alternatively, it is also possible that TDH-mediated production of acetyl-CoA is equally important to the HFB-like metabolic state. This alternative interpretation is consistent with the observation that among all metabolites that decline in abundance most precipitously as a function of the conversion of ES cells into differentiating embryoid bodies, acetyl-CoA was second only to the purine intermediate AICAR. In order to investigate these alternatives, we employed 3-hydroxynorvaline (3-HNV), a synthetic variant of threonine containing an extra carbon atom. It is known that the TDH enzyme can […] this threonine analog, yet instead of producing glycine and acetyl-CoA, catabolism of 3-HNV yields glycine and propionyl-CoA (15). ES cells were cultured in either normal or threonine-deficient medium supplemented with varying levels of 3-HNV. […] The inhibitory effect of 3-HNV was not observed on the growth of HeLa, MEF or 3T3 cells.

3T3 cells = assay: 3T3 cell growth with 3-HNV; type: cell-based
Description: as §1

morula-staged embryos = assay: Early mouse embryo development (morula to blastocyst) in culture with 3-HNV; type: cell-based
Description: The availability of 3-HNV as a cell-permeable threonine analog facilitated experiments using living mouse embryos. Before testing the effects of 3-HNV on early mouse embryo development, in situ hybridization and immunohistochemical staining assays were performed to investigate the expression pattern of both TDH mRNA and TDH enzyme (16). […] Knowing that the ICM represents the in vivo source of ES cells (17), we hypothesized that the early development of mouse embryos might be inhibited by 3-HNV. […] These studies indicate that ICM cells of the early mouse embryo, like cultured mouse ES cells, are critically dependent upon threonine catabolism.
• 1. B. Alberts et al., Molecular Biology of the Cell (Garland Publishing, Inc., New York, ed. March, 2007), pp. 1-1392. • 2. A. G. Smith, Annu. Rev. Cell Dev. Biol. 17, 435 (2001). • 3. B. P. Tu et al., Proc. Natl. Acad. Sci. U.S.A. 104, 16886 (2007). • 4. L. Warren, J. M. Buchanan, J. Biol. Chem. 229, 613 (1957). • H. Weissbach, A. Peterkofsky, B. G. Redfield, H. Dickerman, J. Biol. Chem. 238, 3318 (1963). • 6. E. A. Phear, D. M. Greenberg, J. Am. Chem. Soc. 79, 3737 (1957). • 7. Total RNA was extracted with RNA STAT-60 (Tel-Test) and converted into cDNA with oligo(dT) primer using the SuperScript first-strand synthesis kit (Invitrogen). PCR was performed on an AB 7900HT fast real-time PCR system (Applied Bioscience) using a TDH specific primer pair. • 8. R. A. Dale, Biochim. Biophys. Acta. 544, 496 (1978). • 9. TDH cDNA with an in-frame Flag tag sequence fused to the carboxyl terminus of the enzyme was cloned into mammalian expression vector pcDNA3.1 at EcoR1/Xho1 sites. The resultant vector was transfected into 293T cells using Lipofectamine 2000 reagent (Invitrogen). Stable transformants were selected in media containing 500 μg/ml G418 and characterized by western blotting analysis using anti-Flag antibody (Sigma). To extract mitochondrial protein, cells were homogenized in the buffer containing 10 mM Tris-HCl (pH 7.5), 250 mM sucrose and 2 mM EDTA on ice with a glass pestle douncer. Mitochondria were isolated from homogenates through a two-step differential centrifugation procedure at 600 and 11,000 g for 10 m each at 4° C. Mitochondrial protein was then extracted in 100 mM potassium phosphate buffer (pH 7.4) containing 0.1% NP-40, 10 mM DTT and 1× protease inhibitor cocktail (Sigma). TDH activity was determined by measuring the rate of formation of NADH at 25° C. The assay mixture contained 100 mM Tris-HCl (pH 8.0), 25 mM L-threonine, 5 mM NAD and 25 mM NaCl in a final volume of […] The reaction was initiated by the addition of mitochondrial protein extract, and absorbance of the reaction mixture at 340 nM was recorded continuously on a microplate reader. • 10. […]

MEF cells = assay: MEF cell growth with 3-HNV; type: cell-based, mouse
Description: as §1

mouse ES cells = assay: ES cell colony formation in normal or threonine-deficient medium with 3-HNV; type: cell-based; conditions: varying levels of 3-HNV
Description: Instead of the normal, 400 uM level of glycine, threonine-deficient medium was supplemented with 4 mM glycine. ES cells subjected to this threonine-deficient, glycine-enriched medium grew no better than those subjected to the threonine drop out medium itself. It is possible that ES cells are unable to deliver the supplemented glycine to mitochondria in order to feed the glycine cleavage system and folate charging. Alternatively, it is also possible that TDH-mediated production of acetyl-CoA is equally important to the HFB-like metabolic state. This alternative interpretation is consistent with the observation that among all metabolites that decline in abundance most precipitously as a function of the conversion of ES cells into differentiating embryoid bodies, acetyl-CoA was second only to the purine intermediate AICAR. In order to investigate these alternatives, we employed 3-hydroxynorvaline (3-HNV), a synthetic variant of threonine containing an extra carbon atom. […]
• 1. […] TDH activity was determined by measuring the rate of formation of NADH at 25° C. The assay mixture contained 100 mM Tris-HCl (pH 8.0), 25 mM L-threonine, 5 mM NAD and 25 mM NaCl in a final volume of […] The reaction was initiated by the addition of mitochondrial protein extract, and absorbance of the reaction mixture at 340 nM was recorded continuously on a microplate reader. • 10. […]

`CCC(O)[C@H](N)C(=O)O` (stereo partly drawn) [3-HNV, 3-hydroxynorvaline] was tested, and the “inhibitory effect on cell growth” value (HeLa cells) was “not observed”, the “inhibitory effect on cell growth” value (3T3 cells) was “not observed” and the “conversion of morula-staged embryos into cavitated blastocysts” value (“conversion” for short) (morula-staged embryos; 100 uM 3-HNV) was “A more modest degree of inhibition”. For the same compound, the “conversion” value (morula-staged embryos; 300 uM 3-HNV) was “blocked the conversion of morula-staged embryos into cavitated blastocysts”, the “conversion” value (morula-staged embryos; 1 mM 3-HNV) was “blocked the conversion of morula-staged embryos into cavitated blastocysts” and the “embryo development with threonine supplementation” value (morula-staged embryos; 1 mM 3-HNV, medium supplemented by 4 mM threonine) was “Complete rescue of normal development”. For the same compound, the “inhibitory effect on cell growth” value (MEF cells) was “not observed”, the “ES cell colony formation” value (mouse ES cells; normal culture medium) was “inhibited ES cell colony formation” and the “complementation of the absence of threonine (ES cell colony formation)” value (mouse ES cells; threonine-deficient medium) was “fail to complement the absence of threonine”.
